Molecules are shown by their SMILES. pIC50: −log10 of the molar value. Read-outs that look alike come from different tables or passages of the source.

For assay [1], the system named is 5637. In words: CellTiter-Glo cytotoxicity assay, single agents (Stage 1). Format: cell-based. Particulars: CTG assay 72 h. The procedure:
(§1) A2780, SK-OV-3, OVCAR-3, NCI-H460, NCI-H1975, NCI-H2122, 5637 and HT1376 were cultured in RPMI Medium 1640 (Invitrogen-22400105) supplemented with 10% fetal bovine serum (FBS; Invitrogen-10099141). All the cell lines were maintained in a humidified incubator at 37° C. with 5% CO2. Cell culture media and supplements were purchased from Invitrogen, and tissue culture flasks were purchased from Corning, 96-well plates and 384-well plates were purchased from Greiner. CellTiter-Glo Luminescent Cell Viability Assay kits were purchased from Promega (Promega-G7573), cells counter Vi-Cell was purchased from Beckman, detection instrument Envision was purchased from PerkinElmer.
(§2) Paclitaxcel (used as a reference) and cisplatin were purchased from SELLECK, and they were of highest purity available. All compounds attained solubility in DMSO and when diluted into culture media. DMSO, compounds solutions and culture media were warmed to 37° C. for the solution preparation and dilutions.
(§3) Eight cell lines were allowed to adhere to 96-well plates overnight (100 μL/well), for drug treatments with 3.16 fold dilution, 9 dose points, triplicates or vehicle control, compound stock solutions were prepared in DMSO and added to the wells to give the indicated final drug concentrations. Final DMSO concentration was 0.5%. Cellular ATP concentrations were assessed by using the CellTiter-Glo Cell Viability Assay as per the manufacturer's instructions 72 h after drug addition.
(§4) In Stage 1 the IC50 (using 5 or more concentrations) of each individual compound (cisplatin, gemcitabine and NUC-1031) in the relevant cell lines was determined.
(In general: In ATP-based viability assays light output follows the ATP content of the culture.)

In assay [2] the test system is OVCAR-3. Described as above. Particulars: CTG assay 72 h. Format: cell-based. Here is the method: as §1, §2, §3, §4
Assay [3] deals with NCI-H460. The assay is described as above. Format: cell-based. Particulars: CTG assay 72 h. The procedure:
as §1, §2, §3, §4

Assay [4] relates to SK-OV3. The description is as above. Format: cell-based. Here is the method:
as §1, §2, §3, §4

Assay [5] deals with NCI-H1975. Described as above. Format: cell-based. As to conditions: CTG assay 72 h. The procedure: as §1, §2, §3, §4
Assay [6] deals with HT1376. Described as above. Format: cell-based. The procedure: as §1, §2, §3, §4
In assay [7] the test system is A2780. The description is as above. It is filed as cell-based. Particulars: CTG assay 72 h. The procedure:
as §1, §2, §3, §4

Assay [8] concerns SKOV3 cells. In words: Sulforhodamine B (SRB) assay, single agent. It is filed as cell-based. As to conditions: SRB assay on day 4, read-out: IC50. Here is the method: SKOV3 cells were purchased from American Type Culture Collection (ATCC). They were cultured at 37° C. and 5% CO2 in Gibco™ RMPI Medium 1640+GlutaMAX™-I (Life Technologies; 61870-010) with 10% Gibco™ FBS (Life Technologies; 10270-106) and 1% Gibco™ Penicillin-Streptomycin (Life Technologies; Ser. No. 15/140,122), known as complete medium, in a cell culture flask. Cisplatin was purchased from TEVA UK Limited (PL 00289/1146). Fluvastatin and Sulforaphane were both purchased from Merck Millipore Corporation (Catalogue numbers 344096 and 574215 respectively). (S)-NUC-1031 was provided by NuCana® Ltd.
SKOV3 cells were plated at 250 cells in 200 μl per well in the middle 60 wells of Costar® 3596 96-well plates, with the outer 36 wells filled with 200 μl PBS each. The cells were allowed to grow in complete medium for 48 hours before different drug compounds were added in. For single agent, cisplatin, (S)-NUC-1031, fluvastatin and sulforaphane in complete medium at 10 different concentrations were added into the middle 60 wells (Day 0). Each concentration was loaded in sextuplicate. Cells were exposed to the compounds for 24 hours and the compounds were replaced by pure complete medium. The experiment with fluvastatin was repeated with 4-day exposure instead of 24 hours. The plates were fixed with 50 μl 25% TCA solution at 4° C. for 60 minutes on day 4 after the drug compounds were added for Sulforhodamine B assay (see below).
After adding the TCA solution, the plates were washed under running tap water 10 times and were allowed to dry in the oven at 50° C. The cells were then stained with 50 μl SRB dye, and the dye was washed off with 1% glacial acetic acid for 4 times 30 minutes after SRB addition. The plates were then dried in the oven. SRB dye was allowed to dissolve in 150 μl 10 mM Tris buffer solution for 60 minutes on a rocker. The plates were read on Biohit BP800 Microplate Reader (Biohit Healthcare) and the absorbance was measured at 540 nm. […]
A general note: Sulforhodamine B stains cellular protein and so reports cell mass.

The test system of assay [9] is HT1376 (Bladder). The assay is described as follows: CellTiter-Glo combination analysis (Stage 2). Format: cell-based. As to conditions: cisplatin alone dose-effect curve. The procedure: A2780, SK-OV-3, OVCAR-3, NCI-H460, NCI-H1975, NCI-H2122, 5637 and HT1376 were cultured in RPMI Medium 1640 (Invitrogen-22400105) supplemented with 10% fetal bovine serum (FBS; Invitrogen-10099141). All the cell lines were maintained in a humidified incubator at 37° C. with 5% CO2. Cell culture media and supplements were purchased from Invitrogen, and tissue culture flasks were purchased from Corning, 96-well plates and 384-well plates were purchased from Greiner. CellTiter-Glo Luminescent Cell Viability Assay kits were purchased from Promega (Promega-G7573), cells counter Vi-Cell was purchased from Beckman, detection instrument Envision was purchased from PerkinElmer. 8 cell lines were allowed to adhere to 384 well plates overnight (60 μL/well), for combination study, four combinations of two compounds will be investigated twice, keeping one compound at a fixed concentration while increasing the concentration of the second compound (10 fold dilution, 5 dose points), compound stock solutions were prepared in DMSO and added to the wells to give the indicated final drug concentrations by D300e digital dispenser. […] Cellular ATP concentrations were assessed by using the CellTiter-Glo Cell Viability Assay as per the manufacturer's instructions 72 hours after drug addition. Stage 2 determined the interaction of selected combinations of compounds on cancer cell growth. […]

In assay [10] the test system is biliary tract cancer. Particulars: cited from earlier work.
The mark [11] stands for this setting: absolute IC50, read-out: Ab IC50.
The mark [12] stands for this setting: CTG assay 72 h, absolute IC50, read-out: Ab IC50.
The mark [13] stands for this setting: CTG assay 72 h, relative IC50, read-out: IC50.
Setting [14] is: Homo sapiens, absolute IC50, read-out: Ab IC50.
Where [15] appears, read: Homo sapiens, relative IC50, read-out: IC50.

Take `N.N.[Cl][Pt][Cl]` [Cisplatin, cisplatin]: the “Max Inhibition_%” value was found to be 101.74% in assay [1]; 79.59% in [2]; 97.56% in assay [3]; 86.42% in [4] (CTG assay 72 h); 103.60% in assay [5]; 71.90% in [6] (CTG assay 72 h). Also, the “Max Inhibition_%” value in assay [7] was determined as 99.05%. In addition, the pIC50 is 4.86 in [1] (setting [11]); 4.88 in assay [1] (relative IC50, read-out: IC50); 4.55 in assay [2] (setting [11]); 4.63 in assay [2] (relative IC50, read-out: IC50); 5.59 in [3] (setting [11]); 5.59 in assay [3] (relative IC50, read-out: IC50). For the same compound, the pIC50 is 4.34 in assay [4] (setting [12]); 4.47 in [4] (setting [13]); 4.16 in assay [5] (setting [11]); 4.16 in assay [5] (relative IC50, read-out: IC50); 4.69 in assay [6] (setting [12]); 4.74 in assay [6] (setting [13]). Besides, the pIC50 in assay [7] (setting [11]) is 4.96; in assay [7] (relative IC50, read-out: IC50) it was 5.00; in [8] (24 hours exposure) it was 5.61; in assay [9] (listed as Cisplatin 2, read-out: IC50 (curve shift method)) it was 4.24; in [9] (read-out: IC50 (curve shift method)), 4.19.
As for `C[S+]([O-])CCCCN=C=S` (stereo not drawn) [sulforaphane, Sulforaphane], the pIC50 in [8] (Homo sapiens, SK-OV-3, 24 hours exposure) was 5.15.
Consider `Nc1ccn([C@@H]2O[C@H](CO)[C@@H](O)C2(F)F)c(=O)n1` [Gemcitabine], for which the “overall survival (median)” value in assay [10] (ABC-02, 410 patients with BTC) was 8.1 months. The “progression-free survival (median)” value in assay [10] (ABC-02, patients with BTC) is listed as 5 months. Further, the “Max Inhibition_%” value is on record as 84.49% in assay [1]; 6.95% in assay [2]; 96.28% in assay [3]; 65.74% in assay [4] (CTG assay 72 h); 62.12% in [5]; 9.60% in assay [6] (CTG assay 72 h). In assay [7], the “Max Inhibition_%” value came to 81.15%. Further, the pIC50 in [1] (setting [11]) is 8.00; in assay [1] (relative IC50, read-out: IC50), 8.00; in assay [2] (setting [14]), under 5.70; in assay [2] (setting [15]), 7.70; in assay [3] (setting [14]) it was 8.00; in assay [3] (setting [15]) it was 8.00. Besides, the pIC50 in [4] (Homo sapiens, SK-OV-3, CTG assay 72 h, absolute IC50, read-out: Ab IC50) was 7.70; in assay [4] (Homo sapiens, SK-OV-3, CTG assay 72 h, relative IC50, read-out: IC50), 7.70; in assay [5] (setting [14]), 7.10; in assay [5] (setting [15]), 7.70; in assay [6] (Homo sapiens, HT-1376, CTG assay 72 h, absolute IC50, read-out: Ab IC50) it was under 5.70; in assay [6] (Homo sapiens, HT-1376, CTG assay 72 h, relative IC50, read-out: IC50) it was under 5.70. For the same compound, the pIC50 in assay [7] (setting [14]) and in assay [7] (setting [15]) was 8.00 throughout.

(Values after patent US20190022117A1, “COMBINATION THERAPY” (NuCana plc, priority 2015, published 2019).)
